Experimental data from US20240317746A1, “CRYSTALLINE FORMS OF AN AZETIDINE PARP1 INHIBITOR” (XinThera, Inc., priority 2023, published 2024).
In brackets after ≈: the same amount, converted by molar mass. Several values for one entry are separate records, joined by “and”; a condition that tells them apart may be missing. Identical values can stand only once. Entries after “also recorded” stand apart in the source; their conditions may differ. Counter-ions that a name gives are not always drawn.

Columns and labels:
Type in all cases: physicochemical
[1] = Stability relationship study (slurry turnover of Form II); details: anhydrates Form I vs Form II
Procedure: Form II was prepared via heating starting material to 220° C. in DSC pans. Then, about 15 mg of Form II was stirred in 0.5 mL of selected solvent at desired temperatures for 2 and 5 days. Solid samples were collected by filtration and characterized by XRPD.

[2] = Preliminary solubility test: estimated solubility at RT by visual observation; details: organic solvent or mixture, thermodynamic from solid, read-out: Solubility
Procedure: The solubility of Compound 1 (starting material) was estimated at RT in 18 single solvents and 6 solvent mixtures by visual observation. Approximately 5 mg solids were weighed into 8 mL glass vial, and then solvent was added stepwise until solids were dissolved completely or a total of solvent volume reached 5 mL. […] The solubility was estimated and for reference only.

[3] = DVS test (dynamic vapor sorption, hygroscopicity); details: for hygroscopicity (in words): DVS
Procedure: All the three target forms remained no change after DVS test.
Dynamic Vapor Sorption (DVS) was used to study hygroscopicity on Model Q5000 SA (TA Instruments, New Castle, DE). A sample (1-10 mg) was placed in an aluminum pan and loaded on the sample side of the twin pan balance. The water sorption and desorption were studied as a function of relative humidity (RH) at 25° C. in 10% RH increments from 0% RH to 90% RH and then back to 0%. […] Data analysis was performed using Universal Analysis 2000 Version 4.7A (TA Instruments, New Castle, DE).

[4] = pH solubility profile of Form I in pH buffers; details: for XRPD 4 h / XRPD 24 h: wet cake
Procedure: Different pH buffers (pH 1.0, 3.0, 5.0, 6.8 and 9.0) were prepared by method in Table 18. Appropriate amount of Form I was added into 1.4 mL of different buffers (pH=1.0, 3.0, 5.0, 6.8 and 9.0) to make suspensions. The suspensions were kept shaking with a speed of 1000 rpm at 25° C. for 4 and 24 hours. At each point, the suspensions were centrifuged, and the supernatant was inspected by UPLC/pH, and the wet cakes were analyzed by XRPD. Duplicate samples were prepared.

[5] = Solid-state stability at 60° C. (capped) and 40° C./75% RH (open)
Procedure: (capped) and 40° C./75% RH (open) for 7 days. Duplicate samples were prepared at each condition. The stability sample was dissolved in diluent to prepare solution at ˜1 mg/mL for HPLC purity analysis. Solid samples were analyzed by XRPD to check the crystal form. […] (capped) and 40° C./75% RH (open) for at least 7 days.

[6] = Mechanical stability of Form I (manual grinding); details: ground by pestle and mortar for about 1 minute and 5 minutes
Procedure: Appropriate amount of Form I was manually ground by pestle and mortar for about 1 minute and 5 minutes, respectively. The ground samples were analyzed by XRPD.

[7] = Solubility in bio-relevant media (SGF, FaSSIF, FeSSIF) and water; details: for XRPD 0.5 h / XRPD 2 h / XRPD 24 h: filter cake; for Solubility 0.5 h / Solubility 2 h / Solubility 24 h: average n=2
Procedure: At 0.5, 2 and 24 hours, about 0.6 mL of each suspension was filtered, the filtrate was analyzed by HPLC and pH meter, and the filter cake was analyzed by XRPD. The samples were prepared in duplicate (n=2) per condition. Average value (n=2) was presented.
HPLC analysis was performed with an Agilent HPLC 1260 series instrument.

[8] = Exposure of solid to air at about 38% RH and 22° C.; details: exposed to air at about 38% RH and 22° C.
Procedure: 6 g of Compound 1 Form I, about 99 wt % purity, was dissolved in a mixture of about 96 g of DCM and about 20 g MeOH at about 32° C. The solution was polish filtered and then the vessel was rinsed forward with a mixture of about 20 g of DCM and about 3.6 g of MeOH. The filtrate was charged with a solution containing about 2.28 g of L-tartaric acid dissolved in about 6 mL of water at about 22° C. A slurry of solids formed after stirring for about 1 day. The slurry was distilled under vacuum to about 3 V (about 20 mL) at about 40° C., and then cooled to about 22° C. It was charged with about 87 g of acetone, held at about 22° C. for about 1 h, and then cooled to about 0° C. After holding for about 4 h, the slurry was filtered, rinsed with about 24 g of pre-cooled acetone twice. The wet cake was dried at 50° C. with full house vacuum under nitrogen sweep for about 4 days to afford about 7.36 g of L-tartrate Form IV (with a small amount of L-tartrate Form I). […] When exposed to air at about 38% RH and 22° C., a small sample of Compound 1 L-tartrate Form IV completely converted to Compound 1 L-tartrate Form III in less than 20 min.

[9] = aqueous buffer, thermodynamic from solid, pH 3.0 buffer (25 mM citrate), initial pH 3.01, solid loading 5 mg/mL, 25° C.
[10] = aqueous buffer, thermodynamic from solid, pH 5.0 buffer (25 mM citrate), initial pH 4.95, solid loading 5 mg/mL, 25° C.
[11] = aqueous buffer, thermodynamic from solid, pH 6.8 buffer (25 mM phosphate), initial pH 6.78, solid loading 5 mg/mL, 25° C.
[12] = aqueous buffer, thermodynamic from solid, pH 9.0 buffer (25 mM DEA), initial pH 9.01, solid loading 5 mg/mL, 25° C.
[13] = pH 1.0 buffer, initial pH 1.01, solid loading 60 mg/mL
[14] = pH 3.0 buffer, initial pH 3.01, solid loading 5 mg/mL
[15] = pH 5.0 buffer, initial pH 4.95, solid loading 5 mg/mL
[16] = pH 6.8 buffer, initial pH 6.78, solid loading 5 mg/mL
[17] = pH 9.0 buffer, initial pH 9.01, solid loading 5 mg/mL
[18] = simulated gastric fluid, thermodynamic from solid, pH 1.0 buffer (0.1N HCl), initial pH 1.01, solid loading 60 mg/mL, 25° C.
[19] = FaSSIF, initial pH 6.45, 37° C.
[20] = FaSSIF, initial pH 6.45, filtrate
[21] = FeSSIF, initial pH 4.99, 37° C.
[22] = FeSSIF, initial pH 4.99, filtrate
[23] = Water, initial pH 5.41, filtrate

Structure (SMILES): C[C@@H]1[C@@H](Oc2ccc(C(=O)NC3CC3)nc2)CN1Cc1cnc2cc(Cl)c(=O)[nH]c2c1 [Freebase Form I, 5-(((2R,3S)-1-((7-chloro-6-oxo-5,6-dihydro-1,5-naphthyridin-3-yl)methyl)-2-methylazetidin-3-yl)oxy)-N-cyclopropylpicolinamide]
- relative stability of the crystal form [1]: more stable anhydrate at RT to 80 °C; also recorded: Stable below 80 °C
- solubility ([2]; DCM/MeOH (4/1, v/v), DCM/MeOH (4/1)): > 50000 µg/mL
- solubility ([2]; most solvent systems): < 5000 µg/mL
- hygroscopicity (in words) [3]: slightly hygroscopic
- hygroscopicity (in words) ([3]; listed as Form I): slightly hygroscopic
- crystal form after DVS test ([3]; XRPD after DVS): remained unchanged
- water uptake ([3]; at 80% RH): 0.5%
- water uptake ([3]; at 80% RH, listed as Form I): 0.5% and < 1%
- water uptake ([3]; at 90% RH): 0.6%
- water uptake ([3]; at 90% RH, listed as Form I): 0.6%
- solubility at 4 h [4, 9]: 2460 µg/mL (≈ 5600 µM)
- solubility at 24 h [4, 9]: 784 µg/mL (≈ 1780 µM)
- solubility at 4 h [4, 10]: 83 µg/mL (≈ 189 µM)
- solubility at 24 h [4, 10]: 84 µg/mL (≈ 191 µM)
- solubility at 4 h [4, 11]: 8 µg/mL (≈ 18.2 µM)
- solubility at 24 h [4, 11]: 8 µg/mL (≈ 18.2 µM)
- solubility at 4 h [4, 12]: 14 µg/mL (≈ 31.8 µM)
- solubility at 24 h [4, 12]: 14 µg/mL (≈ 31.8 µM)
- solubility ([4]; pH 1, simulated gastric fluid, thermodynamic from solid, 0.1 N HCl, 25° C., read-out: solubility (highest)): > 40000 µg/mL
- pH 4 h [4, 13]: 2.48
- pH 24 h [4, 13]: 2.38
- XRPD 4 h ([4]; pH 1.0 buffer): Form I
- XRPD 24 h ([4]; pH 1.0 buffer): Form I
- form change of the solid ([4]; pH 3 buffer at 24 h): converted into Citrate Form I
- pH 4 h [4, 14]: 3.30
- pH 24 h [4, 14]: 3.45
- XRPD 4 h ([4]; pH 3.0 buffer): Form I
- XRPD 24 h ([4]; pH 3.0 buffer): Citrate Form I
- pH 4 h [4, 15]: 4.88
- pH 24 h [4, 15]: 4.90
- XRPD 4 h ([4]; pH 5.0 buffer): Form I
- XRPD 24 h ([4]; pH 5.0 buffer): Form I
- solubility (in words) ([4]; pH 6.8 and 9 buffers, 25° C.): low
- pH 4 h [4, 16]: 6.75
- pH 24 h [4, 16]: 6.79
- XRPD 4 h ([4]; pH 6.8 buffer): Form I
- XRPD 24 h ([4]; pH 6.8 buffer): Form I
- pH 4 h [4, 17]: 9.16
- pH 24 h [4, 17]: 9.15
- XRPD 4 h ([4]; pH 9.0 buffer): Form I
- XRPD 24 h ([4]; pH 9.0 buffer): Form I
- solubility at 4 h [4, 18]: > 44400 µg/mL
- solubility at 24 h [4, 18]: > 44500 µg/mL
- form change of the solid ([4]; the other conditions (other buffers and time points)): remained unchanged
- XRPD - 7 d ([5]; 40° C./75% RH (open), 7 days): Unchanged
- physical and chemical stability ([5]; 60° C. (capped) and 40° C./75% RH (open), 7 days): physically and chemically stable
- XRPD - 7 d ([5]; 60° C. (capped), 7 days): Unchanged
- Initial Purity ([5]; before storage, HPLC): 99.16 area %
- crystal form after grinding (XRPD) [6]: remained unchanged with little crystallinity decrease
- XRPD 0.5 h ([7]; FaSSIF): Unchanged
- XRPD 2 h ([7]; FaSSIF): Unchanged
- XRPD 24 h ([7]; FaSSIF): Unchanged
- Solubility 0.5 h [7, 19]: 13 µg/mL (≈ 29.6 µM)
- Solubility 2 h [7, 19]: 15 µg/mL (≈ 34.1 µM)
- Solubility 24 h [7, 19]: 15 µg/mL (≈ 34.1 µM)
- pH 0.5 h [7, 20]: 6.47
- pH 2 h [7, 20]: 6.39
- pH 24 h [7, 20]: 6.44
- XRPD 0.5 h ([7]; FeSSIF): Unchanged
- XRPD 2 h ([7]; FeSSIF): Unchanged
- XRPD 24 h ([7]; FeSSIF): Unchanged
- Solubility 0.5 h [7, 21]: 82 µg/mL (≈ 186 µM)
- Solubility 2 h [7, 21]: 83 µg/mL (≈ 189 µM)
- Solubility 24 h [7, 21]: 80 µg/mL (≈ 182 µM)
- pH 0.5 h [7, 22]: 5.01
- pH 2 h [7, 22]: 4.98
- pH 24 h [7, 22]: 4.82
- XRPD 0.5 h, 2 h, 24 h ([7]; SGF): Clear
- solubility ([7]; SGF, 37 °C, pH 1.23, simulated gastric fluid, thermodynamic from solid, SGF, 37° C., read-out: solubility in SGF): > 5000 µg/mL
- Solubility 0.5 h, 2 h, 24 h ([7]; SGF, initial pH 1.23, 37° C.): >5000 µg/mL
- pH 0.5 h ([7]; SGF, initial pH 1.23, filtrate): 1.33
- pH 2 h ([7]; SGF, initial pH 1.23, filtrate): 1.20
- pH 24 h ([7]; SGF, initial pH 1.23, filtrate): 1.28
- XRPD 0.5 h ([7]; Water): Unchanged
- XRPD 2 h ([7]; Water): Unchanged
- XRPD 24 h ([7]; Water): Unchanged
- Solubility 0.5 h ([7]; Water, initial pH 5.41, 37° C.): 11 µg/mL (≈ 25 µM)
- Solubility 2 h ([7]; Water, initial pH 5.41, 37° C.): 11 µg/mL (≈ 25 µM)
- Solubility 24 h ([7]; Water, initial pH 5.41, 37° C.): 10 µg/mL (≈ 22.7 µM)
- pH 0.5 h [7, 23]: 5.93
- pH 2 h [7, 23]: 6.54
- pH 24 h [7, 23]: 7.54
- crystal form after solubility test ([7]; XRPD of filter cake): remained unchanged
- solubility in the other media (in words) ([7]; media other than SGF (FaSSIF, FeSSIF, water), 37° C.): low solubility

Structure (SMILES): C[C@@H]1[C@@H](Oc2ccc(C(=O)NC3CC3)nc2)CN1Cc1cnc2cc(Cl)c(=O)[nH]c2c1 [L-Tartrate Salt Form IV, 5-(((2R,3S)-1-((7-chloro-6-oxo-5,6-dihydro-1,5-naphthyridin-3-yl)methyl)-2-methylazetidin-3-yl)oxy)-N-cyclopropylpicolinamide]
- time to complete conversion to L-tartrate Form III [8]: less than 20 min
